From patent US10787437B2, “Processes for the preparation of pyrazole derivatives useful as modulators of the 5-HT2A serotonin receptor” (Arena Pharmaceuticals, Inc., priority 2008, dated 2020)

Tests used:
[1] = test system: insomnia patients; experiment: Phase 2 trial, measurements of sleep maintenance versus placebo; type: in vivo, human
Source text: The data from the APD125 Phase 2 study are consistent with Phase 1 data and support further development of APD125 for the treatment of insomnia patients who have difficulty maintaining sleep.

[2] = test system: normal volunteers; experiment: Afternoon nap model of insomnia in normal volunteers; type: in vivo, human
Source text: APD125, a potent and selective 5-HT2A serotonin receptor inverse agonist is a member of the genus disclosed in the European Patent EP1558582. […] Sleep onset latency was not decreased by APD125. In the afternoon nap model, APD125 decreased microarousals, the number of sleep stage shifts, and number of awakenings after sleep onset.

[3] = test system: healthy adults; experiment: Phase 1 trials, waking EEG; type: in vivo, human
[4] = test system: diabetic rats; conditions: cited from earlier work
[5] = test system: DOCA-salt induced hypertension; conditions: rats; cited from earlier work
[6] = target: 5-HT2A (Homo sapiens, UniProt P28223); conditions: cited from earlier work
Chain of 5-HT2A (P28223 whole entry, species assumed): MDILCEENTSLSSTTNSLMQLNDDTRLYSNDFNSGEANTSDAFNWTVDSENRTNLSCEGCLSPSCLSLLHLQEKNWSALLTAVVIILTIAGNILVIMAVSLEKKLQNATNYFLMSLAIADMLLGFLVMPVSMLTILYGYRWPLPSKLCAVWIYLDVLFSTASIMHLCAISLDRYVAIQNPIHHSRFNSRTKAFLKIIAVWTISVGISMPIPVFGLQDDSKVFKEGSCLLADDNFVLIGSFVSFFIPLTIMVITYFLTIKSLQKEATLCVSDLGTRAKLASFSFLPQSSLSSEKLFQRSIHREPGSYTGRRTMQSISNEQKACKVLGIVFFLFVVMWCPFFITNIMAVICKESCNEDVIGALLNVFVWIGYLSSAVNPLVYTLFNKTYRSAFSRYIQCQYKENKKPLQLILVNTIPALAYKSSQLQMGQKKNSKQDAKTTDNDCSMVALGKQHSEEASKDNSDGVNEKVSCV

[7] = test system: spontaneously hypertensive rats; conditions: cited from earlier work
[8] = test system: glaucoma patients; conditions: cited from earlier work
[9] = test system: JC virus; conditions: cited from earlier work
[10] = test system: heatstroke; conditions: in vivo; cited from earlier work
[11] = test system: lumbar disc herniation; conditions: humans; cited from earlier work
[12] = test system: thermal induced pain; conditions: rats, intraperitoneal administration; cited from earlier work
[13] = test system: diabetic nephropathy; conditions: 24 months of treatment; cited from earlier work
[14] = test system: inflammatory pain; conditions: rats, intrathecal or intraperitoneal administration; cited from earlier work

## COc1ccc(NC(=O)Nc2ccc(F)cc2F)cc1-c1c(Br)cnn1C [APD125]
[1]; Phase 2
  next day cognitive effects: without any limiting next day cognitive effects
[1]; Phase 2, compared to placebo
  measurements of sleep maintenance: statistically significant improvements
[2]; afternoon nap model
  REM sleep: at the expense of REM sleep
  microarousals: decreased
  number of awakenings after sleep onset: decreased
  number of sleep stage shifts: decreased
  sleep onset latency: not decreased
[2]; primarily during the early part of sleep
  slow wave sleep and associated parameters: increased slow wave sleep and associated parameters in a dose-dependent manner
[3]
  dose of maximal vigilance-lowering effects on waking EEG: 40 to 80 mg
  effects on waking EEG: vigilance-lowering effects on waking EEG
[3]; after dosing
  time of peak effects after dosing: 2 to 4 h

## O=CN1CCC(C(=O)NCCN2CCC(=C3c4ccccc4C=Cc4ccccc43)CC2)CC1 [AT-1015]
[4]
  14.9% reduction in saphenous sensory conduction velocity: completely reversed
  44.7% reduction in sciatic endoneurial blood flow: completely reversed

## CN1CCN2c3ccccc3Cc3ccccc3C2C1 (stereo not drawn) [Mainserin]
[5]
  DOCA-salt induced hypertension: prevent

## O=C(c1ccc(F)cc1)C1CCN(CCn2c(=O)[nH]c3ccccc3c2=O)CC1 [ketanserin]
[6]
  inverse agonist activity at 5-HT2A: have inverse agonist activity
[7]
  blood pressure: stabilize blood pressure
[8]
  IOP: significantly lower
[9]
  JC virus infection of human glial cells: inhibited
[10]
  protection during heatstroke: protect against circulatory shocks, intracranial hypertension, and cerebral ischemia

## Cc1nc2sccn2c(=O)c1CCN1CCC(=C(c2ccc(F)cc2)c2ccc(F)cc2)CC1 [ritanserin]
[6]
  inverse agonist activity at 5-HT2A: have inverse agonist activity
[9]
  JC virus infection of human glial cells: inhibited
[4]
  14.9% reduction in saphenous sensory conduction velocity: completely reversed
  44.7% reduction in sciatic endoneurial blood flow: completely reversed

## COc1cccc(CCc2ccccc2OCC(CN(C)C)OC(=O)CCC(=O)O)c1 (stereo not drawn) [sarpogrelate]
[11]
  lower back pain, leg pain and numbness associated with sciatica: effective treatment
[8]
  IOP: significantly lower
[12]
  analgesic effect on thermal induced pain: significant analgesic effect
[4]
  14.9% reduction in saphenous sensory conduction velocity: completely reversed
  44.7% reduction in sciatic endoneurial blood flow: completely reversed
[13]
  urinary albumin excretion level: significantly reduced
[14]
  analgesic effect on inflammatory pain: significant analgesic effect
